Assay results published in patent US9791436B2, “Protease-based biosensor” (priority 2012, dated 2017).
pKd: −log10 of the molar value.

Tests used:
ePDZ-b1 = details: cited from earlier work
[1] = molecular target: T1, Erbin-PDZ-FN affinity clamp complex (Homo sapiens, UniProt Q96RT1); test: Induction of the TVMV-based allosteric receptor by PDZ ligands of different affinity; type: biochemical; details: FIG. 11C
T1 construct: made in house; host or cells: E. coli BL21(DE3)-RIL
Description: The maximum induction ratio of TVMV-based allosteric receptors (500 nM) was measured in a similar fashion in the presence or absence of the PDZ ligand peptide-1 ([…]) at a final concentration of 10 μM in protease assay buffer consisting of 50 mM Tris-HCl, 1 M NaCl, 1 mM DTT and 0.5 mM EDTA, pH 8.0. The reaction was generally initiated following the addition of TVMV substrate peptide (Table 1) to a final concentration of 10 μM.
A set of different allosterically regulated proteases was constructed by varying the composition of the three different linkers connecting TVMV to the Erbin-PDZ domain (Linker 1), the Erbin-PDZ domain to the FN3 domain (Linker 2) and the FN3 domain to the AI-domain (Linker 3). […] The largest modulation was effected by progressively shortening and lengthening linker L1.

Sequence of ePDZ-b1 (as listed by the source): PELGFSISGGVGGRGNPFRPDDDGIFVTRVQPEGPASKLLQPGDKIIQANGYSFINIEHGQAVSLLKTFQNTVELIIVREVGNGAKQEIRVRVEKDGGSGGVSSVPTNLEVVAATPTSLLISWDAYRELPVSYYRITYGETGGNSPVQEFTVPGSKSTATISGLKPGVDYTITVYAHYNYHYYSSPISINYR
T1 sequence (Q96RT1 with tags, fused parts or gaps limits assumed): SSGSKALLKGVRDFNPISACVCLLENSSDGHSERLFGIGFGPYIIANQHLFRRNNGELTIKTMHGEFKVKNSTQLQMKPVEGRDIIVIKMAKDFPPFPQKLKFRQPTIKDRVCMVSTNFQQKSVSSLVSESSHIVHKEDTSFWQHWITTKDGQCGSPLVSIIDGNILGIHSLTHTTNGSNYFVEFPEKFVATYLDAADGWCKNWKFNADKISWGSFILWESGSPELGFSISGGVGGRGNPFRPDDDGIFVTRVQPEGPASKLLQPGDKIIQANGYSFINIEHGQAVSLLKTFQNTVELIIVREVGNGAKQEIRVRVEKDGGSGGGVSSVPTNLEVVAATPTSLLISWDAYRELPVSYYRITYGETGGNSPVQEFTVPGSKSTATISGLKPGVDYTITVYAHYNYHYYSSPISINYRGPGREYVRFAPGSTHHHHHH

Row | Sequence | pKd (ePDZ-b1) | induction of activity compared to the higher affinity PDZ peptide ligand-1 [1]
1 | RGSIDTWV [PDZ-Ligand 1] | ~9.20 | –
2 | PQPVDSWV [PDZ-Ligand 2] | ~8.30 | approximately 10 fold lower
